Results published in publication PMC4731470, “Inhibitory Effect of Bridged Nucleosides on Thermus aquaticus DNA Polymerase and Insight into the Binding Interactions” (PLoS ONE, 2016).

Tests used:
Taq DNA polymerase [1] = target: T1, Taq DNA polymerase (Thermus aquaticus, UniProt P19821); experiment: TaqMan qPCR kinetics (double-reciprocal plot); IC50 also by TaqMan qPCR and EvaGreen primer extension assay; assay type: biochemical
T1 construct: gene polA

Taq DNA polymerase [2] = target: T1, Taq DNA polymerase; experiment: TaqMan qPCR (IC50 […]); EvaGreen primer extension assay (IC50 […]); assay type: biochemical

T1 sequence (P19821 whole entry): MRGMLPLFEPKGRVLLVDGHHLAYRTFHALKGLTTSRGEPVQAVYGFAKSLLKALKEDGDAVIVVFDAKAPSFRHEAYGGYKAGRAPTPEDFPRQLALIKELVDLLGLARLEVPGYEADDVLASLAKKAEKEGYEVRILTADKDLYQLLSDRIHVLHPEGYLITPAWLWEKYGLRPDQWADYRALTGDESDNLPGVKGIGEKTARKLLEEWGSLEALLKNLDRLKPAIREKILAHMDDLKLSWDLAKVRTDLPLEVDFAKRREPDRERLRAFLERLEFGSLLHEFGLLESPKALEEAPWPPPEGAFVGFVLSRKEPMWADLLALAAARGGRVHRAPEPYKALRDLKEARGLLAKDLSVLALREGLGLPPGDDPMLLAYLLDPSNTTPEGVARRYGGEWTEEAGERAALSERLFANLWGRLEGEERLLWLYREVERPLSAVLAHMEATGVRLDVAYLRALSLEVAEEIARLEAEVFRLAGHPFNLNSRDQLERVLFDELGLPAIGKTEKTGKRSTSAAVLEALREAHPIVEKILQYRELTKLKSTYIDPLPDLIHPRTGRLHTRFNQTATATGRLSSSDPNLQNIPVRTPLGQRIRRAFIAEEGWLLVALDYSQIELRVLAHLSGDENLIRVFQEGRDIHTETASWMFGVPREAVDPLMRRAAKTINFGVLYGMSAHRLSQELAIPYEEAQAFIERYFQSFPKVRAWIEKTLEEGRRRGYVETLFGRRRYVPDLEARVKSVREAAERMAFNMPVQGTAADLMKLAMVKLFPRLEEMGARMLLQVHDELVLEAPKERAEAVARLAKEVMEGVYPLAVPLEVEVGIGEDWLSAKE

## Cc1cn([C@@H]2O[C@@]3(CO)CO[C@@H]2[C@@H]3O)c(=O)[nH]c1=O [2',4'-bridged thymidine]
Taq DNA polymerase [1]
  Ki: 9.7 ± 1.1 µM

## Nc1ccn([C@H]2CC[C@@H](COP(=O)(O)OP(=O)(O)OP(=O)(O)O)O2)c(=O)n1 [ddCTP]
Taq DNA polymerase [2]
  IC50: 300 ± 100 µM
